From the NIST ThermoML archive (doi:10.1021/je060271a)

Conditions: 283.15 K, Liquid, Vibrating tube method

CCCC(=O)OCC(COC(=O)CCC)(COC(=O)CCC)COC(=O)CCC [pentaerythritol tetrabutyrate]
Conditions	mass density [kg/m3]
22400 kPa	1071.8
22416 kPa	1071.7
22432 kPa	1071.7
22448 kPa	1071.7
22467 kPa	1071.7
22485 kPa	1071.7
22500 kPa	1071.8
22516 kPa	1071.7
22535 kPa	1071.9
22551 kPa	1072
22567 kPa	1071.8
22586 kPa	1071.9
22602 kPa	1071.9
22618 kPa	1071.8
22634 kPa	1071.9
22654 kPa	1071.9
22670 kPa	1072
22686 kPa	1071.9
22706 kPa	1071.9
22722 kPa	1071.9
22738 kPa	1071.9
22754 kPa	1071.9
22774 kPa	1071.9
22806 kPa	1072
22894 kPa	1072.1
22914 kPa	1072
22930 kPa	1072.1
22946 kPa	1072
22964 kPa	1072.1
22984 kPa	1072
23000 kPa	1072.1
23143 kPa	1072.2
23160 kPa	1072.1
23177 kPa	1072.1
23197 kPa	1072.2
23214 kPa	1072.3
23231 kPa	1072.3
23249 kPa	1072.2
23286 kPa	1072.2
23303 kPa	1072.3
23324 kPa	1072.2
23341 kPa	1072.3
23358 kPa	1072.2
23379 kPa	1072.2
23396 kPa	1072.3
23413 kPa	1072.3
23731 kPa	1072.5
23749 kPa	1072.5
23882 kPa	1072.6
23900 kPa	1072.5
23921 kPa	1072.6
23939 kPa	1072.5
23958 kPa	1072.7
23980 kPa	1072.6
23998 kPa	1072.5
24016 kPa	1072.7
24272 kPa	1072.8
24291 kPa	1072.8
24313 kPa	1072.8
24675 kPa	1073
24694 kPa	1073
24718 kPa	1073
24737 kPa	1073
24756 kPa	1073
24780 kPa	1073
24799 kPa	1073.1
24819 kPa	1073
24842 kPa	1073.1
24862 kPa	1073.1
24882 kPa	1073.1
24902 kPa	1073.1
24926 kPa	1073.1
24945 kPa	1073.1
24969 kPa	1073.2
25008 kPa	1073.3
25032 kPa	1073.1
25052 kPa	1073.1
25072 kPa	1073.2
25092 kPa	1073.2
25112 kPa	1073.3
25136 kPa	1073.2
25157 kPa	1073.1
25182 kPa	1073.3
25201 kPa	1073.3
25225 kPa	1073.2
25246 kPa	1073.2
25266 kPa	1073.3
25287 kPa	1073.3
25311 kPa	1073.3
25332 kPa	1073.3
25353 kPa	1073.3
25378 kPa	1073.3
25399 kPa	1073.4
25420 kPa	1073.3
25441 kPa	1073.3
25465 kPa	1073.5
25486 kPa	1073.3
25598 kPa	1073.4
25620 kPa	1073.5
25641 kPa	1073.6
25666 kPa	1073.5
25688 kPa	1073.6
25710 kPa	1073.5
25731 kPa	1073.6
25757 kPa	1073.5
25778 kPa	1073.5
25799 kPa	1073.5
25820 kPa	1073.5
25846 kPa	1073.6
25867 kPa	1073.5
25889 kPa	1073.7
25915 kPa	1073.5
25936 kPa	1073.6
25958 kPa	1073.7
25985 kPa	1073.7
26009 kPa	1073.6
26031 kPa	1073.7
26052 kPa	1073.7
26074 kPa	1073.8
26101 kPa	1073.8
26122 kPa	1073.6
26148 kPa	1073.8
26170 kPa	1073.8
26193 kPa	1073.7
26219 kPa	1073.8
26241 kPa	1073.8
26264 kPa	1073.8
26290 kPa	1073.8
26313 kPa	1073.8
26334 kPa	1073.8
26361 kPa	1073.8
26384 kPa	1073.9
26406 kPa	1073.8
26429 kPa	1073.8
26456 kPa	1074
26478 kPa	1073.9
26501 kPa	1073.8
26722 kPa	1074
26740 kPa	1074
26772 kPa	1074.1
26796 kPa	1074
26824 kPa	1074.1
26848 kPa	1074.1
26871 kPa	1074.2
26899 kPa	1074.2
26923 kPa	1074
